In test [1] the target is T1, AR (Homo sapiens, UniProt P10275, Q868H).
T1 construct: endogenous in cells; host or cells: parental MDA-MB453
T1 sequence (P10275 1-920 Q868H): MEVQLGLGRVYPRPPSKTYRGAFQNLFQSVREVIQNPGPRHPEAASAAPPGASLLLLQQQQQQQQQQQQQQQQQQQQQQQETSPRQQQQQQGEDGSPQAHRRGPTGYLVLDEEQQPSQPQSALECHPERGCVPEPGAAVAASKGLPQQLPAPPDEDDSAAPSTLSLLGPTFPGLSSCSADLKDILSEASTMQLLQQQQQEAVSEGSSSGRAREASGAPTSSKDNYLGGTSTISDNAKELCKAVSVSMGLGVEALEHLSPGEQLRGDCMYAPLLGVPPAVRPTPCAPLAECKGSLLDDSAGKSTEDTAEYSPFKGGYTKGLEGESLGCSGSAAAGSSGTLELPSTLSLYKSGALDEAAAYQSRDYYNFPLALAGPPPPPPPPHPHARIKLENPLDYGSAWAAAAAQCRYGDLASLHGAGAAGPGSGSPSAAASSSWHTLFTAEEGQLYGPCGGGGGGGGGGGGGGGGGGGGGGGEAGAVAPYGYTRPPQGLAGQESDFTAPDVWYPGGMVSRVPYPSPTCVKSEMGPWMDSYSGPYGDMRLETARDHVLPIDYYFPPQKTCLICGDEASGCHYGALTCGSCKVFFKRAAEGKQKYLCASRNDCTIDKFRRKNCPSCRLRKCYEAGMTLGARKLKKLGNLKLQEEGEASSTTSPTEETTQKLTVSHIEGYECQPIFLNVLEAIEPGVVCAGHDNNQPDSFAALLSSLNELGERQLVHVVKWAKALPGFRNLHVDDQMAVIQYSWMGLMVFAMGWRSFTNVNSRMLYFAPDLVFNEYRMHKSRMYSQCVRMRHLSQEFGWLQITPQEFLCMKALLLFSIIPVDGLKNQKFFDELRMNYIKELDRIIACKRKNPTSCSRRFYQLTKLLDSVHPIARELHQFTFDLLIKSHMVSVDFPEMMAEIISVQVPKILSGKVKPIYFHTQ
Description: testosterone-stimulated parental MDA-MB453 (direct effects on AR). In kind it is cell-based.

Test [2] concerns testosterone biosynthesis. Description: testosterone levels in intact rats. In kind it is in vivo. The settings on record: p.o., over 14 days, FIG. 6. The protocol:
Intact rats were administered p.o. the indicated doses of 18β-glycyrrhetinic acid over 14 days and testosterone levels were determined.

Test [3] has as its target T2, 17β-HSD3 (Homo sapiens, UniProt P37058).
T2 sequence (P37058 1-310): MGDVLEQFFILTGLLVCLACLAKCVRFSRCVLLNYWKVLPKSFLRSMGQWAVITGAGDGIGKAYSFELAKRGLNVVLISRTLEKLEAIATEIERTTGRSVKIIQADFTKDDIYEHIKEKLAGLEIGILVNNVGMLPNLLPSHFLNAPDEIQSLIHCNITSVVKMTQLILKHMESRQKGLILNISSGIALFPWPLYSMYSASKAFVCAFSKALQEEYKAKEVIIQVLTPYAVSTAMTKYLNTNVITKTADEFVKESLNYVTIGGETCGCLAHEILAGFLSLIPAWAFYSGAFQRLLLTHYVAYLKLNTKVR
Put plainly: TLC assay of androstenedione to testosterone conversion in Shinogi-17β-HSD3 cells. In kind it is cell-based. The settings on record: Shinogi-17β-HSD3 cells incubated with {3H}-androstenedione; read-out: IC50 estimated by TLC assay. The protocol: Cells were plated in 24-well tissue culture plates at 5×10^4 cells per well in their appropriate media. After allowing the cells to adhere for 24 hours, the media was changed to contain 10% cFBS (charcoal treated FBS) (300 μL) per well and 0.5μ Ci of the radiolabeled hormones were added to each well. After 3 hours, the supernatant was removed and 500 μL of extraction buffer (3 parts Ethyl Acetate: 1 part Acetone) was added to each sample and vortexed extensively. The organic layer was carefully removed and dried down in siliconized 1.5 mL microfuge tubes (National Scientific Supply Co.). […] The BAS screens were then read using a Fujifilm PhosphoImager FLA-2000 and spots were quantitated using the Fujifilm MacBas imaging/densitometry program.
The characterization of breast and prostate tumor cell lines for the 17β-HSD activities enabled the identification of cells which could be engineered for preferred 17β-HSD3 activity to monitor the cellular effects of inhibitors. […] In addition, 17β-HSD mRNA was not detected at appreciable levels in these cells by RT-PCR (data not shown). […]
To confirm that this class of compounds was inhibiting 17β-HSD3, Shinogi-17β-HSD3 cells incubated with {3H}-androstenedione were analyzed by TLC assay following 2-[(3-chloro-4-hydroxybenzoyl)amino]-N-[2-(2-methoxyphenyl)ethyl]-5-phenoxybenzamide treatment.

As usually defined, the IC50 is the concentration needed to halve the response being measured.

Consider `CC1(C)[C@@H](O)CC[C@]2(C)[C@H]3C(=O)C=C4[C@@H]5C[C@@](C)(C(=O)O)CC[C@]5(C)CC[C@@]4(C)[C@]3(C)CC[C@@H]12` [18β-glycyrrhetinic acid], for which the “effects on testosterone-stimulated parental MDA-MB453” value in test [1] is “No effects were observed”. Moreover, in test [2], the “testosterone biosynthesis (testosterone levels)” value is “inhibition of testosterone biosynthesis”.
For `COc1ccccc1CCNC(=O)c1cc(Oc2ccccc2)ccc1NC(=O)c1ccc(O)c(Cl)c1` [2-[(3-chloro-4-hydroxybenzoyl)amino]-N-[2-(2-methoxyphenyl)ethyl]-5-phenoxybenzamide], the IC50 in test [3] is about 300 nM.
`C[C@]12C=CC(=O)C=C1C(=O)C[C@@H]1[C@@H]2CC[C@]2(C)C(=O)CC[C@@H]12` [1,4-androstadiene-1,6,17-trione]: the “effects on testosterone-stimulated parental MDA-MB453” value in test [1] is recorded as “No effects were observed”.

These data come from patent US7138246B2, “Methods for identifying or screening for agents that modulate 17β-HSD3” (Bristol-Myers Squibb Company, priority 2004, dated 2006).
